From US8252820B2, “1-orthofluorophenyl substituted 1,2,5-thiazolidinedione derivatives as PTP-as inhibitors” (Novartis AG, priority 2005, dated 2012) come the findings set out here.

For this assay, the target named is T1, human PTP-1B (Homo sapiens, UniProt P18031).
T1 construct: recombinant human PTP-1B[1-298] or PTP-1B[1-322]
T1 sequence (P18031 1-298 limits assumed): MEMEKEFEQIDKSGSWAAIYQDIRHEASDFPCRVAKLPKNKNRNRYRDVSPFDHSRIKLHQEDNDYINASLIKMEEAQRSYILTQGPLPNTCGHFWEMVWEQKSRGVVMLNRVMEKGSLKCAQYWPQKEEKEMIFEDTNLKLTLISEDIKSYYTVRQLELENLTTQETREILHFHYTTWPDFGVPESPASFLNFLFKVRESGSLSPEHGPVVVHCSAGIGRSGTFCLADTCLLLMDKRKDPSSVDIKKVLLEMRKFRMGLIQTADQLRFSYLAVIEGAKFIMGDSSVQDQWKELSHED
The assay can be described thus: PTP-1B inhibitory activity in vitro (IC50). In kind it is biochemical. The note with it: inhibitory activity to human PTP-1B. How it is done:
Assessment of human PTP-1B (hPTP-1B) activity in the presence of various agents is determined by measuring the amount of inorganic phosphate released from a phosphopeptide substrate using a 96-well microtiter plate format. The assay (100 μL) is performed in an assay buffer comprised of 50 mM TRIS (pH 7.5), 50 mM NaCl, 3 mM DTT at ambient temperature. The assay is typically performed in the presence of 0.4% dimethyl sulfoxide (DMSO). However, concentrations as high as 10% are used with certain poorly soluble compounds. […] Inorganic phosphate, a product of the enzyme reaction, is quantitiated after 15 min as the green color resulting from complexing with the […] reagent and is determined as an A620 using a Molecular Devices (Sunnyvale, Calif.) SpectraMAX Plus spectrophotometer. […] Activity is defined as the net change in absorbance resulting from the activity of the uninhibited hPTP-1B[1-411] minus that of a tube with acid-inactivated hPTP-1B[1-411]. […] Alternatively, the assessment of human PTP-1B activity in the presence of various agents may be determined by measuring the hydrolysis products of known competing substrates. For example, cleavage of substrate para-nitrophenylphosphate (pNPP) results in the release of the yellow-colored para-nitrophenol (pNP) which can be monitored in real time using a spectrophotometer. […] Absorbance at 405 nm is measured using any standard 384 well plate reader. […]

SMILES strings stand for the structures. Counter-ions that a name gives are not always drawn.

In general, IC50 refers to the midpoint of a concentration-inhibition curve. Low values mean greater potency, high ones weaker potency. `O=C1CN(c2c(O)c(F)cc(F)c2F)S(=O)(=O)N1` [Example No. 26, 1,1-Dioxo-5-(2,3,6-trifluoro-6-hydroxy-phenyl)-1,2,5]thiadiazolidin-3-one potassium salt] returned an IC50 of 158 nM.

As to `O=C1CN(c2c(O)cc(CC3CCCCC3)cc2F)S(=O)(=O)N1` [Example No. 13, 5-(4-Cyclohexylmethyl-2-fluoro-6-hydroxyphenyl)-1,1-dioxo-1,2,5-thiadiazolidin-3-one], half-maximal inhibition (IC50) was put at 104 nM.
